Data taken from patent US20190192543A1, “NOVEL USE” (IDOGEN AB, priority 2016, published 2019).

Test system: IDO1 gene expression in THP-1 cells
Test: Induction of IDO1 in THP-1 cells (RT-qPCR)
Type: cell-based, human
Conditions: for IDO1 expression (fold change): 96 hours, normalised to HPRT1, vs DMSO control
Protocol: THP-1 cells were harvested from appropriate number of T75 flasks. Cells were counted in a Bürker chamber, stained with 0.4% Trypan Blue. The appropriate number of cells for each experiment were transferred to a new tube and centrifuged at 1200 rpm, 5 min at room temperature (RT). The supernatant was discarded and fresh RPMI with 5% FBS were added to get a cell concentration of 2×10^5 cells/mL. The compound was added to the five separate wells in 6-well plates such that five different final concentrations were obtained after adding the cells. A control was added to one well in the 6-well plate to which cells were added. 1×10^6 cells per well were seeded out to achieve a total volume of 5 mL per well. The cells were incubated at 37° C. in 5% CO2 for 96 hours. After 96 hours the assay was stopped and the cells were lysed for the isolation of RNA.
Total RNA was extracted from THP-1 cells using the RNA RNeasy Mini extraction kit (Qiagen), according to the manufacturer's instructions. A SuperScript® VILO™ RT-kit (Thermo Fisher) was used to reverse transcribe 1 μg of total RNA to cDNA and qPCR was performed. The primers used for amplification of the human IDO1 gene were 5″-[…]-3″ (forward; SEQ ID No. 1) and 5″-[…]-3″ (reverse; SEQ ID No. 2). The primers used for amplification of the endogenous reference gene for human HPRT1 were 5″-[…]-3″ (forward; SEQ ID No. 3) and 5″-[…]-3″ (reverse; SEQ ID No. 4). In brief, RT-qPCR was performed in 20 μl reaction, consisting 10 μl PowerUp SYBR Green Master Mix, 0.5 μM of each primer, 4 μl diluted cDNA for amplification of IDO1 and 1.5 μl diluted cDNA for amplification of HPRT1. An iCycler iQ real-time detection system (Stratagene, Mx3000P, La Jolla, Calif., USA) with the following thermal profile: UDG incubation at 50° C. for 2 min, then denaturation at 95° C. for 5 min, followed by 45 cycles at 94° C. for 15 s, 58° C. for 30 s, and 60° C. for 30 s, was used to perform thermocycling and real-time detection of PCR products. After amplification a melting curve analysis was performed. The RT-qPCR experiments were always run in triplicate. IDO1 was normalised to the geometric means of two HPRT1 reference gene, using the ΔCt method. Within-group comparisons were normalized to one control sample, using the ΔΔCt method.
The procedure under “Induction of IDO1 in THP-1 cells” was followed such that the final concentrations set out in Table 1 were obtained.
Following RNA extraction and quantification of gene expression by RT-qPRC, as described above, induction of IDO1 gene expression using Samples 1 to 6 was investigated.

Q: Which results are given for Nc1ncn([C@H]2C[C@H](OP(=O)(O)OC[C@H]3O[C@@H](n4cnc5c(=O)[nH]c(N)nc54)C[C@@H]3O)[C@@H](CO)O2)c(=O)n1 [guadecitabine]?
A: IDO1 expression (fold change) (0.1 micromolar): 2.1 fold change; IDO1 expression (fold change) (0.3 micromolar): 4.7 fold change; IDO1 expression (fold change) (1 micromolar): 34 fold change; IDO1 expression (fold change) (3 micromolar): 68 fold change; IDO1 expression (fold change) (10 micromolar): 74 fold change; increase of IDO1 gene expression (maximum over tested concentrations) (guadecitabine alone, 0.1-10 micromolar, highest induction at 10 micromolar): up to 74 fold
